Assay results published in patent US20250304623A1, “PEPTIDES FOR INTRACELLULAR DELIVERY” (UNIVERSIDADE DE SANTIAGO DE COMPOSTELA, priority 2022, published 2025).
*: point of attachment. NHNH2 = NN*

Assays:
[1] = system: Hela cells expressing EGFP; experiment: Cas9-RNP delivery against EGFP (gene editing, plate reader), HeLa; format: cell-based; settings: for % GFP silencing due to gene editing (Cas9-RNP): HeLa
Method: To generate an EGFP expressing HeLa cell line, HeLa cells were transfected with EGFP pDNA (pEGFP-C1, Clontech) and stable transfectants were selected with 400 μg/mL of G-418 (Millipore). Green clones were selected by epifluorescence microscopy and tested for EGFP expression stability through several passages. […] All other EGFP-expressing cell lines were obtained in a similar way from parent non-EGFP-expressing cell lines.
Cells expressing EGFP were seeded in a 96 well plate the day before the experiment at a concentration of 50,000 cell/mL (100 μL/w) in DMEM+10% FBS+1% Gln-Abt. For robotic library screening, the delivery of Cas9-RNP against EGFP (RNP designed to knock-out the gene encoding for the enhanced green fluorescent protein (EGFP)) was performed. For RNP assembly, 9.2 μL of crRNA and 9.2 μL of tracrRNA were mixed in 211.6 μL of Nuclease-Free Duplex Buffer (IDT), incubated for 5 min at 95° C. and slowly cooled at rt (see I. Lostalé-Seijo, et al. Peptide/Cas9 nanostructures for ribonucleoprotein cell membrane transport and gene edition, Chem. Sci., 2017). Cas9 protein was dissolved in DMEM at a final concentration of 4 μM and equal volumes of the RNA complex and Cas9 were mixed and incubated for 5 min at rt. 75 μL of the corresponding amphiphile concentrations were added to 5 μL of RNP at 2 μM. The mixture was shaken for 30 min at room temperature before the addition to the cells. The cell medium was aspirated, and cells were washed twice with PBS. Cells were covered with 30 μL of DMEM and 20 μL of the RNP/amphiphile complexes were added to the cells (final peptide concentrations=2.5, 5 and 10 μM; final Cas9-RNP concentration=50 nM) and incubated for 4 h. After the incubation, the medium was replaced by 100 μL of fresh DMEM supplemented with 10% FBS. The total EGFP fluorescence was quantified after 72 h in a plate reader (FIG. 2, Table 1 (right) and Table 6). All experiments were done in triplicate.
(§1) Tables 1-7: RLuc (pDNA) or EGFP (mRNA) expression levels were normalized to Lipofectamine reagents (value=1) and expressed as fold-times signal increase. In the case of siRNA, the siRNA treated cells fluorescence was compared with siMOCK control fluorescence, while Cas9-RNP mediated knockout was measured against the fluorescence of untreated cells. In both siRNA and Cas9-RNP, values are expressed as % fluorescence reduction. Amphiphile concentration was 5 μM in all cases. All experiments were performed in triplicate.
Tables 26-31 show the mean (triplicates) percentage of gene editing, accounted by GFP fluorescence intensity decrease (% of reduction), measured after the transfection of Cas9-RNP by different amphiphiles at different concentrations in a variety of cell lines. Background values, accounted by untreated control cells, were subtracted for processing.

ARPE19 cells = experiment: EGFP mRNA delivery, robotic library screening, ARPE19; format: cell-based
Method: Cells were seeded in a 96 well plate the day before the experiment at a concentration of 50,000 cell/mL (100 μL/w) in DMEM+10% FBS+1% Gln-Abt. For robotic library screening, the delivery of EGFP-mRNA (from TriLink, fully substituted with 5-methoxyuridine, capped and polyadenylated; TriLink, CleanCap® EGFP mRNA (5moU), ref. L-7201) in six different cell lines was performed. Amphiphilic molecule stock solutions were prepared in DMSO as described above and diluted in DMEM to afford a range of concentrations. The solutions of EGFP-mRNA/amphiphilic molecule complexes were freshly prepared prior to the transfection experiments. 35 μL of the corresponding amphiphile were added to 10 μL of a solution of EGFP-mRNA at 10 ng/μL in DMEM. The mixture was shaken for 30 min at room temperature before the addition to the cells. The cell medium was aspirated, and cells were washed with PBS twice. Cells were covered with 39 μL of DMEM and 11 μL of the complex's solution were added to the cells and incubated for 4 h (final concentration of peptide=2.5, 5 and 10 μM; final concentration of EGFP-mRNA=25 ng/well). After the incubation, the medium was replaced by 100 μL of fresh DMEM supplemented with 10% FBS. The total EGFP fluorescence was quantified after 72 h in a well plate reader. Amphiphile transfection efficiency was compared and normalized to Lipofectamine® MessengerMax efficiency (value of 1 in Tables 1-5 and 7; double underlined numbers). All experiments were done in triplicate.
as §1
Tables 14-19 show the mean (triplicates) fluorescence intensity measured after the transfection of EGFP mRNA by different amphiphiles at different concentrations in a variety of cell lines. Background fluorescence values, accounted by untreated control cells, were subtracted for processing.

[2] = Petroselinyl, 10 μM, Hela cells
[3] = Petroselinyl, 15 μM, Hela cells

Substance	percentage of gene editing, GFP fluorescence intensity decrease (% of reduction) ([1]; Dodecanal, 5 μM, Hela cells) [%]	percentage of gene editing, GFP fluorescence intensity decrease (% of reduction) ([1]; Dodecanal, 10 μM, HeLa cells) [%]	percentage of gene editing, GFP fluorescence intensity decrease (% of reduction) ([1]; Dodecanal, 15 μM, Hela cells) [%]	% GFP silencing due to gene editing (Cas9-RNP) ([1]; 5 μM, Pal tail) [%]	percentage of gene editing, GFP fluorescence intensity decrease (% of reduction) ([1]; Myristoleyl, 5 μM, HeLa cells) [%]	percentage of gene editing, GFP fluorescence intensity decrease (% of reduction) ([1]; Myristoleyl, 15 μM, Hela cells) [%]	percentage of gene editing, GFP fluorescence intensity decrease (% of reduction) ([1]; Palmitoleyl, 10 μM, HeLa cells) [%]	percentage of gene editing, GFP fluorescence intensity decrease (% of reduction) ([1]; Palmitoleyl, 15 μM, Hela cells) [%]	percentage of gene editing, GFP fluorescence intensity decrease (% of reduction) [1, 2] [%]	percentage of gene editing, GFP fluorescence intensity decrease (% of reduction) [1, 3] [%]	mean fluorescence intensity (EGFP mRNA) (ARPE19 cells; Myristoleyl, 2.5 μM)	mean fluorescence intensity (EGFP mRNA) (ARPE19 cells; Myristoleyl, 5 μM)	mean fluorescence intensity (EGFP mRNA) (ARPE19 cells; Petroselinyl, 5 μM)	mean fluorescence intensity (EGFP mRNA) (ARPE19 cells; Petroselinyl, 10 μM)	other results
Ac-RK*LRRK*LRK*-NH2 (Ac-RK(NHNH2)LRRK(NHNH2)LRK(NHNH2)-NH2; not fully specified; printed as Ac-RK*LRRK*LRK*-NH2; also: K*2,K*6,K*9: native or modified lysine (ε-amide to a linker)) [Peptide 9.3]	25	61	80	77	14	81	44	77	49	77	5042	1233	858	–	% GFP silencing due to gene editing (Cas9-RNP) ([1]; 5 μM, Dod tail): 80%; percentage of gene editing, GFP fluorescence intensity decrease (% of reduction) ([1]; Oleyl, 5 μM, HeLa cells): 11%; percentage of gene editing, GFP fluorescence intensity decrease (% of reduction) ([1]; Oleyl, 10 μM, HeLa cells): 26%; mean fluorescence intensity (EGFP mRNA) (ARPE19 cells; Oleyl, 5 μM): 859; mean fluorescence intensity (EGFP mRNA) (ARPE19 cells; Oleyl, 10 μM): 919; mean fluorescence intensity (EGFP mRNA) (ARPE19 cells; Palmitoleyl, 5 μM): 948
Ac-RK*LRRLLRK*-NH2 (Ac-RK(NHNH2)LRRLLRK(NHNH2)-NH2; not fully specified; printed as Ac-RK*LRRLLRK*-NH2; also: K*2,K*9: native or modified lysine (ε-amide to a linker)) [Peptide 9.2]	6	14	47	–	−12	52	–	–	–	–	1377	941	–	–	–
Ac-RRHK*RLK*RRLK*RL-NH2 (Ac-RRHK(NHNH2)RLK(NHNH2)RRLK(NHNH2)RL-NH2; not fully specified; printed as Ac-RRHK*RLK*RRLK*RL-NH2; also: K*4,K*7,K*11: native or modified lysine (ε-amide to a linker)) [13(Leu-His)]	–	–	–	–	16	–	–	–	74	81	–	–	318	419	% GFP silencing due to gene editing (Cas9-RNP) ([1]; 5 μM, Myr tail): 73%; percentage of gene editing, GFP fluorescence intensity decrease (% of reduction) ([1]; Myristoleyl, 10 μM, HeLa cells): 73%; percentage of gene editing, GFP fluorescence intensity decrease (% of reduction) ([1]; Petroselinyl, 5 μM, HeLa cells): 39%
Ac-RRLK*RLK*RRLK*RL-NH2 [Peptide 13.3]	–	–	–	68	29	86	68	80	–	85	1787	1055	828	1310	% GFP silencing due to gene editing (Cas9-RNP) ([1]; 5 μM, Ole tail): 76%; % GFP silencing due to gene editing (Cas9-RNP) ([1]; 5 μM, Pet tail): 63%; percentage of gene editing, GFP fluorescence intensity decrease (% of reduction) ([1]; Palmitoleyl, 5 μM, HeLa cells): 18%; mean fluorescence intensity (EGFP mRNA) (ARPE19 cells; Dodecanal, 5 μM): 1162; mean fluorescence intensity (EGFP mRNA) (ARPE19 cells; Dodecanal, 10 μM): 1636; mean fluorescence intensity (EGFP mRNA) (ARPE19 cells; Myristoleyl, 10 μM): 1763; mean fluorescence intensity (EGFP mRNA) (ARPE19 cells; Petroselinyl, 2.5 μM): 1485
